Values joined by “and” are separate entries in the source; they are usually repeats but may differ in a detail not shown here. Identical values can stand only once. Like-named read-outs stand apart in the source and are kept apart here.
Key:
[1] = tested on: 60 cancer cell lines (NCI 60 cancer cell line series); assay: NCI-DTP in vitro cancer screen, sulforhodamine B (SRB) growth inhibition, 48 hour exposure; format: cell-based, human
How it was run: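 Sixty NCI-DTP cancer lines plated at line-specific densities, dosed on day 1 in duplicate with 5 concentrations at ten-fold intervals. After 48 h exposure, cell mass read by SRB staining; GI50 (50% growth inhibition) taken from dose-response curves and expressed as -log GI50.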

[2] = tested on: 60 cancer cell lines (NCI 60 cancer cell line series); details: cited from earlier work

In the case of `COc1cccc2c1C(=O)c1c(O)c3c(c(O)c1C2=O)C[C@@](O)(C(C)=O)C[C@@H]3O[C@H]1C[C@H](N)[C@H](O)[C@H](C)O1` [Daunorubicin], the “classification of cell line as Low(1), Medium(2) or High(3) sensitivity to compound” value (from here on “classification of cell line”) ([1]; Breast BT-549 (CL5013)) is reported as 1, the “classification of cell line” value ([1]; Breast MCF7(I) (CL5001)) is reported as 3 and the “classification of cell line” value ([1]; Breast MCF7/ADRr (CL5002)) is reported as 1. The “classification of cell line” value ([1]; Breast MDA-MB-231 CL5005) was 1, the “classification of cell line” value ([1]; Breast MDA-MB-435 (CL5011)) was 1 and the “classification of cell line” value ([1]; Breast MDA-N CL5012) was 1. For the same compound, the “classification of cell line” value ([1]; Breast T-47D (CL5014)) was 2, the “classification of cell line” value ([1]; CNS SF-268 CL12014) was 2 and the “classification of cell line” value ([1]; CNS SF-295 CL12015) was 2. For the same compound, the “classification of cell line” value ([1]; CNS SNB-19 (CL12002)) was 2, the “classification of cell line” value ([1]; CNS SNB-75(I) CL12005) was 2 and the “classification of cell line” value ([1]; CNS U251(I) CL12009) was 2. The “classification of cell line” value ([1]; Colon COLO-250 CL4010) was 1, the “classification of cell line” value ([1]; Colon HCC-2998 (CL4002)) was 1 and the “classification of cell line” value ([1]; Colon HCT-15 CL4015) was 1. For the same compound, the “classification of cell line” value ([1]; Colon HCT-116 (CL4003)) was 2, the “classification of cell line” value ([1]; Colon HT29(I) CL4001) was 2 and the “classification of cell line” value ([1]; Colon SW-620 (CL4009)) was 2. The “classification of cell line” value ([1]; Leukemia CCRF-CEM(I) (CL7003)) was 3, the “classification of cell line” value ([1]; Leukemia HL-60(I) (CL7008)) was 3 and the “classification of cell line” value ([1]; Leukemia MOLT-4 (CL7006)) was 3. The “classification of cell line” value ([1]; Leukemia SR CL7019) was 3, the “classification of cell line” value ([1]; Melanoma M14 (CL10014)) was 1 and the “classification of cell line” value ([1]; Melanoma MALME-3M CL10002) was 2. The “classification of cell line” value ([1]; Melanoma SK-MEL-5 (CL10007)) was 2, the “classification of cell line” value ([1]; Melanoma SK-MEL-28 (CL10008)) was 1 and the “classification of cell line” value ([1]; Melanoma UACC-62 (CL10020)) was 2. For the same compound, the “classification of cell line” value ([1]; Melanoma UACC-257 (CL10021)) was 1, the “classification of cell line” value ([1]; NSCLC A549/ATCC (CL1004)) was 2 and the “classification of cell line” value ([1]; NSCLC EKVX (CL1008)) was 1. The “classification of cell line” value ([1]; NSCLC HOP-62 (CL1026)) was 2, the “classification of cell line” value ([1]; NSCLC HOP-92 (CL1029)) was 2 and the “classification of cell line” value ([1]; NSCLC NCI-H226 CL1013) was 2. The “sensitivity class NSCLC NCI-H23(I) CL1001” value ([1]; cell line NSCLC NCI-H23(I), CL1001) was 2, the “sensitivity class NSCLC NCI-H332M CL1017” value ([1]; cell line NSCLC NCI-H332M, CL1017) was 1 and the “sensitivity class NSCLC NCI-H460 CL1021” value ([1]; cell line NSCLC NCI-H460, CL1021) was 3. For the same compound, the “sensitivity class NSCLC NCI-H522 CL1003” value ([1]; cell line NSCLC NCI-H522, CL1003) was 2, the “sensitivity class Ovarian IGROV1 CL6010” value ([1]; cell line Ovarian IGROV1, CL6010) was 2 and the “sensitivity class Ovarian OVCAR-3 CL6001” value ([1]; cell line Ovarian OVCAR-3, CL6001) was 1. For the same compound, the “sensitivity class Ovarian OVCAR-4 CL6002” value ([1]; cell line Ovarian OVCAR-4, CL6002) was 1, the “sensitivity class Ovarian OVCAR-5 CL6003” value ([1]; cell line Ovarian OVCAR-5, CL6003) was 1 and the “sensitivity class Ovarian OVCAR-8 CL6005” value ([1]; cell line Ovarian OVCAR-8, CL6005) was 2. The “sensitivity class Prostate DU-145 CL11003” value ([1]; cell line Prostate DU-145, CL11003) was 2, the “sensitivity class Prostate PC-3(I) CL11001” value ([1]; cell line Prostate PC-3(I), CL11001) was 2 and the “sensitivity class Renal 786-O CL9018” value ([1]; cell line Renal 786-O, CL9018) was 2. For the same compound, the “sensitivity class Renal A498 CL9013” value ([1]; cell line Renal A498, CL9013) was 1, the “sensitivity class Renal ACHN CL9023” value ([1]; cell line Renal ACHN, CL9023) was 2 and the “sensitivity class Renal CAKI-1 CL9015” value ([1]; cell line Renal CAKI-1, CL9015) was 2. For the same compound, the “sensitivity class Renal RXF-393 CL9016” value ([1]; cell line Renal RXF-393, CL9016) was 1, the “sensitivity class Renal SN12C CL9008” value ([1]; cell line Renal SN12C, CL9008) was 2 and the “sensitivity class Renal TK10 CL9024” value ([1]; cell line Renal TK10, CL9024) was 1. The “sensitivity class Renal UO-31 CL9004” value ([1]; cell line Renal UO-31, CL9004) was 1, the “-Log (GI50)” value ([2]; Breast BT-549 (CL5013)) was 6.8 and 6.7 and the “-Log (GI50)” value ([2]; Breast MCF7(I) (CL5001)) was 8.1 and 8.0. The “-Log (GI50)” value ([2]; Breast MCF7/ADRr (CL5002)) was 5.3, the “-Log (GI50)” value ([2]; Breast MDA-MB-231 CL5005) was 6.7 and 6.9 and the “-Log (GI50)” value ([2]; Breast MDA-MB-435 (CL5011)) was 6.7 and 6.9. For the same compound, the “-Log (GI50)” value ([2]; Breast MDA-N CL5012) was 6.8 and 7.1, the “-Log (GI50)” value ([2]; Breast T-47D (CL5014)) was 7.2 and 7.3 and the “-Log (GI50)” value ([2]; CNS SNB-19 (CL12002)) was 7.4 and 7.7. For the same compound, the “-Log (GI50)” value ([2]; CNS U251(I) CL12009) was 7.5 and 7.8, the “-Log (GI50)” value ([2]; Colon COLO-250 CL4010) was 6.8 and the “-Log (GI50)” value ([2]; Colon HCC-2998 (CL4002)) was 6.8 and 6.7. For the same compound, the “-Log (GI50)” value ([2]; Colon HCT-15 CL4015) was 6.2 and 5.9, the “-Log (GI50)” value ([2]; Colon HCT-116 (CL4003)) was 7.6 and 7.8 and the “-Log (GI50)” value ([2]; Colon SW-620 (CL4009)) was 7.6 and 7.7. The “-Log (GI50)” value ([2]; Leukemia CCRF-CEM(I) (CL7003)) was 7.9 and 8.0, the “-Log (GI50)” value ([2]; Leukemia HL-60(I) (CL7008)) was 7.9 and 8.0 and the “-Log (GI50)” value ([2]; Leukemia MOLT-4 (CL7006)) was 8.2 and 8.0. The “-Log (GI50)” value ([2]; Leukemia SR CL7019) was 8.1 and 8.0, the “-Log (GI50)” value ([2]; Melanoma M14 (CL10014)) was 6.8 and 7.1 and the “-Log (GI50)” value ([2]; Melanoma MALME-3M CL10002) was 7.3 and 7.6. For the same compound, the “-Log (GI50)” value ([2]; Melanoma SK-MEL-5 (CL10007)) was 7.2 and 7.4, the “-Log (GI50)” value ([2]; Melanoma SK-MEL-28 (CL10008)) was 6.5 and 6.7 and the “-Log (GI50)” value ([2]; Melanoma UACC-257 (CL10021)) was 6.7 and 6.9. For the same compound, the “-Log (GI50)” value ([2]; NCSLC NCI-H522 CL1003) was 7.3 and 7.5, the “-Log (GI50)” value ([2]; NSCLC A549/ATCC (CL1004)) was 7.3 and 7.6 and the “-Log (GI50)” value ([2]; NSCLC EKVX (CL1008)) was 6.2 and 5.9. For the same compound, the “-Log (GI50)” value ([2]; NSCLC HOP-62 (CL1026)) was 7.6 and 7.8, the “-Log (GI50)” value ([2]; NSCLC HOP-92 (CL1029)) was 7.2 and 7.5 and the “-Log (GI50)” value ([2]; NSCLC NCI-H226 CL1013) was 7.5. The “-Log (GI50)” value ([2]; NSCLC NCI-H332M CL1017) was 6.5 and 6.8, the “-Log (GI50)” value ([2]; NSCLC NCI-H460 CL1021) was 8.2 and 8.0 and the “-Log (GI50)” value ([2]; Ovarian OVCAR-3 CL6001) was 6.8 and 7.0. For the same compound, the “-Log (GI50)” value ([2]; Ovarian OVCAR-4 CL6002) was 6.5 and 6.8, the “-Log (GI50)” value ([2]; Renal A498 CL9013) was 6.8 and 6.9 and the “-Log (GI50)” value ([2]; Renal RXF-393 CL9016) was 6.8 and 7.0. For the same compound, the “-Log (GI50)” value ([2]; Renal UO-31 CL9004) was 6.4.

— patent US20020051978A1, “Methods and compositions for the identification, assessment, prevention and therapy of human cancers” (priority 2000, published 2002)
